The term MIC denotes the least concentration at which growth counts as inhibited.

These results are taken from DBAASP.

Values after ≈ are worked out from the molar mass of the structure shown. Where only a bound is given, the exact number is not on record here.

Some test systems named below: Candida albicans DBFIQ 1; Candida albicans PEEC 2; Bacillus cereus DSM 4222; Bacillus cereus DSM 4312; Escherichia coli; Listeria monocytogenes; Staphylococcus aureus.
Common to all, as to assay: ≥ marks a high value that may be exact or a test limit, other limits are often not marked, values filed in µg/mL are converted to µM
Experiment [1] concerns Candida tropicalis DBFIQ 3.
The subject of experiment [2] is Staphylococcus aureus ATCC 25923.
Experiment [3] deals with Escherichia coli ATCC 35218.
The test system of experiment [4] is Staphylococcus aureus BSF FBCB1313.
The subject of experiment [5] is Pseudomonas aeruginosa ATCC 27853.
In experiment [6] the test system is Enterococcus faecalis ATCC 29212.
Experiment [7] relates to Listeria monocytogenes ATCC 19115.
Experiment [8] relates to Escherichia coli O157:H7 ATCC 35150.
For experiment [9], the system named is Salmonella enterica subsp. enterica serovar Typhimurium DSM 554.
Experiment [10] relates to Salmonella enterica subsp. enterica serovar Typhimurium ATCC 14028.
Experiment [11] concerns Acinetobacter baumannii ATCC 17978.
For experiment [12], the system named is Bacillus subtilis ATCC 6633.
Experiment [13] deals with Escherichia coli NEB5alpha.
Experiment [14] has as its system Enterobacter cloacae ATCC 13047.
The subject of experiment [15] is Salmonella typhimurium DSM 19587.
The test system of experiment [16] is Staphylococcus aureus ATCC 43300.
The test system of experiment [17] is Escherichia coli ATCC 8739.
In experiment [18] the test system is Staphylococcus aureus ATCC 6538.
Experiment [19] concerns Clostridium perfringens DSM 11784.
Experiment [20] has as its system Staphylococcus aureus ATCC 3300.
The subject of experiment [21] is Clostridium perfringens ATCC 13124.
For experiment [22], the system named is Pseudomonas aeruginosa ATCC 10145.
Experiment [23] has as its system Staphylococcus aureus RN4220.
Experiment [24] relates to Pseudomonas putida DSM 291.
Experiment [25] deals with Staphylococcus aureus DSM 2569.
Experiment [26] has as its system Staphylococcus aureus ATCC 16558.
In experiment [27] the test system is Bacillus subtilis ATCC 6051.
In experiment [28] the test system is Listeria monocytogenes SLCC 5581.
The test system of experiment [29] is Escherichia coli ATCC 35150.
Experiment [30] has as its system Pseudomonas fluorescens DSM 50124.
For experiment [31], the system named is Escherichia coli NCTC 13452.
Experiment [32] concerns Enterococcus faecium ATCC 19434.
Experiment [33] deals with Klebsiella pneumoniae ATCC 13883.
Experiment [34] deals with Bifidobacterium longum subsp. infantis.

Regarding `CC(C)C[C@H](NC(=O)[C@H](CCCCN)NC(=O)[C@H](CCCCN)NC(=O)[C@H](Cc1ccccc1)NC(=O)[C@H](CC(C)C)NC(=O)[C@H](CCCCN)NC(=O)[C@H](CCCCN)NC(=O)[C@H](Cc1ccccc1)NC(=O)[C@H](CC(C)C)NC(=O)[C@@H](N)CCCCN)C(=O)N[C@@H](Cc1ccccc1)C(=O)N[C@@H](CCCCN)C(N)=O` [KLFKKLFKKLFK], the minimal inhibitory concentration (MIC) in experiment [1] is not below 81.7 µM; with Candida albicans DBFIQ 1, not below 40.8 µM; in experiment [2], 2.6 µM (≈ 4.07 µg/mL); in [3], 5.1 µM (≈ 7.99 µg/mL); in [4] it was 10.2 µM (≈ 16 µg/mL); in [5], 2.6 µM (≈ 4.07 µg/mL). The figures for the minimum inhibitory concentration (MIC) (in experiment [6]; with Candida albicans PEEC 2) were 5.1 µM (≈ 7.99 µg/mL) and not below 40.8 µM, respectively.
On to `CC[C@H](C)[C@H](NC(=O)[C@@H](N)CCCN=C(N)N)C(=O)N[C@@H](CCCCN)C(=O)N[C@H](C(=O)N[C@H](C(=O)N[C@H](C(=O)N[C@@H](CO)C(=O)N[C@@H](Cc1ccccc1)C(=O)N[C@@H](CC(=O)O)C(=O)N[C@@H](CC(C)C)C(=O)N1CCC[C@H]1C(=O)N[C@@H](C)C(=O)N[C@@H](CC(C)C)C(=O)N[C@@H](CCCN=C(N)N)C(=O)N[C@@H](Cc1c[nH]c2ccccc12)C(=O)N[C@@H](CC(C)C)C(=O)N[C@@H](CCCCN)C(=O)N[C@@H](CC(C)C)C(=O)O)[C@@H](C)O)C(C)C)[C@@H](C)O` [RIKTVTSFDLPALRWLKL], for which the MIC in [7] is not below 1160 µM; in [8], not below 371 µM; in experiment [9] it was not below 1000 µM; against Bacillus cereus DSM 4222 it was not below 1000 µM; in [10], more than 464 µM; in experiment [11], not below 464 µM. In addition, the MIC is more than 464 µM in experiment [2]; not below 1160 µM in [12]; not below 62.5 µM in [13]; not below 464 µM in experiment [14]; not below 1000 µM in the experiment on Bacillus cereus DSM 4312; more than 464 µM with Escherichia coli. The MIC was not below 1000 µM in [15]; more than 464 µM in experiment [16]; not below 371 µM in [17]; more than 1160 µM in [18]; not below 1000 µM in experiment [19]; not below 250 µM against Listeria monocytogenes. For the same molecule, the minimal inhibitory concentration (MIC) in experiment [20] is not below 500 µM; in [21] it was not below 125 µM; in [22] it was not below 464 µM; in experiment [23], not below 1160 µM; in experiment [24], not below 125 µM; in experiment [25], not below 500 µM. Further, the MIC in experiment [26] is not below 1160 µM; in experiment [27] it was 15.6 µM (≈ 33.7 µg/mL); in [28], not below 500 µM; in [29], not below 500 µM; in experiment [30], not below 500 µM; in [31], not below 125 µM. The MIC in experiment [32] and in [33] was not below 464 µM in each case.
As to `CC[C@H](C)[C@H](NC(=O)[C@@H]1CCCN1C(=O)[C@H](CC(N)=O)NC(=O)[C@H](Cc1cnc[nH]1)NC(=O)[C@@H](NC(=O)[C@@H]1CCCN1C(=O)[C@H](C)NC(=O)[C@@H](N)CC(C)C)C(C)C)C(=O)O` [LAPVHNPI], the minimal inhibitory concentration (MIC) was 3490 µM (≈ 3000 µg/mL) in the experiment with Staphylococcus aureus, 3490 µM (≈ 3000 µg/mL) in the experiment on Escherichia coli and not below 3490 µM in experiment [34].
